{"source": "patent US8877948B2", "about": "“Synthesis process of polyol carbonate from polyols, conducted in using a solvent selective for polyols carbonates” (Arkema France, priority 2008, dated 2014)", "experiment": "Solubility of glycerol carbonate, glycerol and urea in selective solvents", "assay_type": "physicochemical", "details": "at 25° C.", "data": [{"smiles": "CC(C)C#N", "note": "[Isobutyronitrile]", "values": [{"measurement": "Solubility of Glycerol Carbonate", "setting": "solute glycerol carbonate in the listed solvent", "result": ">500", "unit": "mg/mL"}, {"measurement": "Solubility of Glycerol", "setting": "solute glycerol in the listed solvent", "result": 10, "unit": "mg/mL"}, {"measurement": "Solubility of Urea", "setting": "solute urea in the listed solvent", "result": 60, "unit": "mg/mL"}]}]}
